From patent publication US12527785B2, “Renin-angiotensin-aldosterone system (RAAS) inhibitors in the treatment of pancreatic ductal carcinoma” (OCHSNER CLINIC FOUNDATION, priority 2023, dated 2026)
Like-named read-outs stand apart in the source and are kept apart here.

Experiments:
PANC-1 cells = test: WST1 cell proliferation assay, PANC-1 cells; assay type: cell-based, human; details: 10% FCS-DMEM
Protocol: (§1) PDA cell line (PANC-1 or HS766T) or patient cancer cells (PaCa9) were trypsinized with 1% trypsin in Hank's Balanced Salt Solution (HBSS), counted, washed, and resuspended in serum free AIM media (ThermoFisher Scientific, Waltham, MA) or complete Dulbecco's Modified Eagle Medium (DMEM) supplemented with 10% fetal bovine serum, […], 100 U/ml of penicillin G, and […] of streptomycin. Cells at a concentration of 2-4×10^4 cells/well in 100 μl culture medium were seeded in triplicate in 96 well plates, then cultured in a humidified incubator at 37° C. and 5% CO2. On the next day, cell supernatant was discarded and compounds (e.g., drugs) of the present disclosure in 200 μl medium were added with the concentrations indicated in the following Examples. After 72 hours of culture, cell proliferation reagent WST1 (20 μl/well, Sigma Aldrich Inc, St. Louis, MO) were added and plates were read using an ELISA reader at 2 hours and 4 hours under the wavelength of 450 nm. The measured absorbance (OD value) was recorded and graphed and statistically analyzed using GraphPad Prism 8, t-test, or t-test with Bonferroni correction.

HS766T cells = test: WST1 cell proliferation assay, HS766T cells; assay type: cell-based; details: 10% FCS-DMEM
Protocol: as §1

[1] = test system: PANC-1 tumor orthotopic xenograft; test: PANC-1 tumor orthotopic xenograft mouse model (BLI tumor burden, tumor weight); assay type: in vivo; details: for Tumor weight / Tumor weight, mean: 100 mg/kg EMA401, DWK 8.5; for Tumor weight: Table 17A, control 0.9444; for Tumor weight lowered versus control: EMA401 (100 mg/kg); for BLI data, % of control / BLI data, mean: four weeks; for BLI data, mean: control 3.003
Description: (§2) Human PDCA cell line PANC-1 was transduced with pre-made lentiviral vectors encoding luciferase (firefly)/red fluorescent protein (RFP) to enable monitoring of the growth of primary tumor and metastasis. […] For in vivo experiments, Nonobese diabetic/severe combined immunodeficiencyNOD-SCID mice (Jackson Labs, Bar Harbor, ME, or inhouse breeding) were first brought under anesthesia with isoflurane (2.5% in 100% oxygen, 1 L/min) in an induction chamber and maintained under adequate anesthesia (isoflurane inhalation) while being laid on a warming pad throughout the surgical procedure. For tumor generation, 5×10^4 luciferase-tagged PANC-1 cells were co-inoculated with 3×10^5 lymph node stromal cell (LNSC) analog HK cells. The mice received a 0.75-1.2 cm long incision (on the left side of the body slightly medial to the splenic silhouette) to exteriorize the spleen and pancreas. While gently retracting the pancreas laterally, a 30 G needle was inserted along the length of the pancreas from the tail to the pancreatic head region. Then, 10 μl of cell suspension was injected as the needle was withdrawn to the mid-body of the pancreas. The needle was removed, and the area was inspected for leakage and bleeding. The pancreas and spleen were internalized with forceps and the abdominal muscle layer was closed with interrupted stitches (3-0 silk suture). The overlying skin was closed with a second set of interrupted stitches. Buprenorphine SR-LAB was injected subcutaneously immediately after the surgery for pain relief.
After the surgery, tumor growth and metastatic tumor burden were monitored and assessed weekly for luciferase activity by bioluminescence imaging (BLI) using Lago Imaging System (Spectral Instruments Imaging, Tucson, AZ). Mice were anesthetized using isoflurane for all imaging procedures. Mice were administered intraperitoneally with luciferin (10 mg/kg) and imaged in 10-20 minutes for maximum luciferase signal plateau. Images were analyzed using Aura Imaging software. Once the BLI levels of xenografted tumor reached 5×10^8 photons (around 7-9 weeks post PANC-1 cell injection), the mice were grouped based on their BLI level and compounds (e.g., drugs) of the present disclosure were given by gavage daily to each group for 4 weeks. […] Upon sacrifice after 4 weeks of treatment, primary tumors and mouse organs were harvested, weighed, imaged, and formalin-fixed for (hematoxylin and eosin) H&E and immunohistochemistry staining. Data was statistically analyzed using t-test, or t-test with Bonferroni correction.

[2] = Toxicity, body weight and deaths observed in the in vivo xenograft studies
Description: as §2
After the surgery, tumor growth and metastatic tumor burden were monitored and assessed weekly for luciferase activity by bioluminescence imaging (BLI) using Lago Imaging System (Spectral Instruments Imaging, Tucson, AZ). Mice were anesthetized using isoflurane for all imaging procedures. Mice were administered intraperitoneally with luciferin (10 mg/kg) and imaged in 10-20 minutes for maximum luciferase signal plateau. Images were analyzed using Aura Imaging software. […] […] […] Data was statistically analyzed using t-test, or t-test with Bonferroni correction.

[3] = Serum concentration of EMA401 after oral dosing in humans; assay type: in vivo, human
[4] = test system: PDCA cells (PANC-1, HS766T, PaCa9); test: In vitro PDCA cell proliferation (WST1), summary statements over the cell lines tested; assay type: cell-based; details: 10 μM; all cell lines tested
Protocol: as §1

[5] = 100 mg EMA401 p.o. in men and women; cited from earlier work

## COc1ccc2c(c1OCc1ccccc1)C[C@@H](C(=O)O)N(C(=O)C(c1ccccc1)c1ccccc1)C2 [EMA401]
PANC-1 cells; EMA 10 μM, Table 1, 2 h, control 3.618
  cell proliferation, WST1 absorbance (OD value, 450 nm), mean: 2.976
PANC-1 cells; EMA 50 μM, Table 1, 2 h, control 3.618
  cell proliferation, WST1 absorbance (OD value, 450 nm), mean: 2.957
PANC-1 cells; EMA401 10 μM, Table 5A, 2×10^4 cells per well, Medium/DMSO 3.348
  cell proliferation, WST1 absorbance (OD value, 450 nm), mean: 2.872
PANC-1 cells; EMA401 50 μM, Table 5A, 2×10^4 cells per well, Medium/DMSO 3.348
  cell proliferation, WST1 absorbance (OD value, 450 nm), mean: 0.691
HS766T cells; EMA 10 μM, Table 2, 2 h, control 3.214
  cell proliferation, WST1 absorbance (OD value, 450 nm), mean: 1.360
HS766T cells; EMA 50 μM, Table 2, 2 h, control 3.214
  cell proliferation, WST1 absorbance (OD value, 450 nm), mean: 1.41
HS766T cells; EMA401 10 μM, Table 6A, 2×10^4 cells per well, control 3.339
  cell proliferation, WST1 absorbance (OD value, 450 nm), mean: 3.290
HS766T cells; EMA401 50 μM, Table 6A, 2×10^4 cells per well, control 3.339
  cell proliferation, WST1 absorbance (OD value, 450 nm), mean: 0.593
[1]; all animals
  Tumor weight: 0.7215 g
[1]; excluding one outlier
  Tumor weight: 0.6174 (Excluding
[1]; Table 17B (repeated study), control 0.8041
  Tumor weight, mean: 0.5383 g
[1]; Table 17C (both studies pooled, including the outlier), control 0.8763
  Tumor weight, mean: 0.6347 g
[1]; 100 mg/kg EMA401 for 8 weeks, first study, all animals, did not reach statistical significance
  Tumor weight fall versus control: 24%
[1]; 100 mg/kg EMA401 for 8 weeks, first study, one outlier omitted, p=0.036
  Tumor weight decrease versus control: 35%
[1]; EMA401 60 mg/kg, short-term (4 week) low dose study
  Effect on tumor weight: did not reduce tumor weight
[1]; 4 week study, not statistically significant
  Tumor weight lowered versus control: 26%
[1]; after 8 weeks treatment (example 5), significant
  Tumor weight lowered versus control: 33%
[1]; EMA (60 mg/kg)
  BLI data, % of control: 59%
  BLI data, mean: 1.782
[1]; EMA (100 mg/kg)
  BLI data, % of control: 61%
  BLI data, mean: 1.834
[2]; 100 mg/kg EMA401 for 8 weeks
  End of study body weights versus control: not different
[2]; 100 mg/kg EMA401 for 8 weeks (Table 16, Tables 17A-17C)
  Drug-related toxicity: No drug-related toxicity was observed
[2]; 100 mg/kg EMA401 for 8 weeks, one control animal died
  Deaths during the study: no EMA401-treated animal died
[3]; 100 mg EMA401 p.o. in men and women, converted with mol wt 507.6
  Serum concentration: 2 µM
[3]; 400 mg/day EMA401 in humans
  Serum concentration: 8 µM
[3]; 600 mg/day p.o., extrapolated (would produce)
  Serum concentration: 12 µM
[4]
  Effective (statistically significant, p<0.05, decrease in cell proliferation by WST1 assay): effective in all cell lines tested
[5]
  Serum concentration: 1000 ng/mL
